Measurements as given in publication PMC8333425, “Discovery of a dual Ras and ARF6 inhibitor from a GPCR endocytosis screen” (Nature Communications, 2021).
Where “and” joins values, the source holds several entries; their conditions need not be identical. Equal values may be shown once.

System: Ras
Test: GST-Raf1-RBD pull-down of AT1R-mediated Ras activation
Format: cell-based, human
Conditions: for Ras-GTP over total Ras, GST-Raf1-RBD pull-down, AT1R: Comp 21 50 μM, individual experiments
Text: Since 21 inhibited both ERK1/2 and Akt activation by GPCRs and EGFR, we looked at a common target involved in both pathways. The small G protein Ras is an upstream regulator of both Ras-RAF-MEK-ERK and PI3K/Akt signaling pathways[35],[36]. Therefore, we explored 21’s ability to inhibit Ras activity using GST-Raf1-Ras-binding domain (RBD) in a pull-down assay. A reduction of 60% in GTP-bound Ras was noticed in pulled-down from cells treated with 21 and stimulated with either AT1R or EGFR, as compared to vehicle-treated cells (Fig. 4a, b). Complementary to this in vitro assay, we generated a Ras BRET assay, using the Raf-Ras binding domain tagged with RlucII (Raf1-RBD-RlucII) and the rGFP at the PM (rGFP-CAAX) (Supplementary Fig. 3c), to assess 21’s effects on Ras activation kinetics. […] Overexpression of either the active form of Ras (G12V) or SOS1 anchored at the PM (SOS-CAAX) produced a robust basal BRET signal that was no longer modulated by receptor activation (Supplementary Fig. 3d). […] 21’s potency to inhibit ARF6 and Ras is also consistent with its relative efficacy for inhibiting AT1R internalization and MAPK, respectively, when used at 50 μM (e.g., around 7 and 70 times the respective IC50s) (Figs. 2e and 3a). We also assessed if 21 was acting as a pan small G protein inhibitor by testing its effect on Rho and Rac/Cdc42. […] To assess Rac/Cdc42 activity, we generated a Rac/Cdc42 BRET sensor that consisted of the PAK-CRIB domain fused to RlucII (PAK-CRIB-RlucII) and the rGFP-CAAX (Supplementary Fig. 3e). PAK-CRIB, which binds to active Rac/Cdc42, was recruited to the PM upon AngII stimulation of cells and generated a robust BRET signal, which was blocked by the overexpression of the DN Rac1-T17N. Overexpression of the constitutively active Rac1-Q61L increased the basal BRET, which was no longer modulated by AT1R stimulation (Supplementary Fig. 3f).
Activation of ARF1, ARF6, Ras, and Rho were assessed by using GST pull-down assays. […] ImageLab 5.2 software was used to quantify the digital blots as fold of the amount of pulled down protein over total protein. […]

## CC(C)C(=O)N1CCN(c2ccc(NC(=O)c3cc4ccccc4o3)cc2Cl)CC1 [Compound 21]
50 μM, compared to vehicle-treated cells
  reduction in GTP-bound Ras, AT1R-stimulated cells (pull-down): 60%
AngII
  Ras-GTP over total Ras, GST-Raf1-RBD pull-down, AT1R: 0.2615 and 0.2571 and 0.1009 and 0.2909 and 0.08351
Ctrl (no AngII)
  Ras-GTP over total Ras, GST-Raf1-RBD pull-down, AT1R: 0.2526 and 0.08678 and 0.1353 and 0.1074 and 0.09399
